Laboratory results taken from patent US20250152743A1, “SYNPOPTOSIS CIRCUITS FOR PROGRAMMABLE CELL DEATH CONTROL” (California Institute of Technology, priority 2023, published 2025).
Entries after “also recorded” stand apart in the source; their conditions may differ.

Experiments:
Format in all cases: cell-based, human
HEK293FT cells [1] = experiment: Polytransfection of input proteases and caspase cleavage-site variants, Annexin staining; settings: order, decreasing: ENLFFQQ; ENLFFQY; ENLYFQS+TEVP-cleavable DHFR; ENLFFQS~ENLYFQY~ENLYFQQ; ENLYFQS; both TEVP and TVMVP cleavage site
Text: The cleavage efficiency of proteases is known to depend on corresponding accessible cleavage sites. Mutations to native protease cleavage sites can slow (i) the recruitment of substrates to the protease active site, (ii) catalytic reaction steps, or (iii) the release of the substrate from the protease. As described herein, this property to modulate cell death executioner activation thresholds. Specifically, we surveyed the following constructs with modified protease cleavage sites across a wide range of possible cell death executioner and input protease expression regimes:
Caspase 3 with ENLYFQS TEVP protease cleavage site (native protease cleavage site is ENLYFQG/S, SEQ ID NOs: 1-2), which serves as a control; Caspase 3 with ENLYFQY (SEQ ID NO: 3) TEVP protease cleavage site; Caspase 3 with ENLYFQQ (SEQ ID NO: 4) TEVP protease cleavage site; Caspase 3 with ENLFFQS (SEQ ID NO: 5) TEVP protease cleavage site; Caspase 3 with ENLFFQY (SEQ ID NO: 6) TEVP protease cleavage site; Caspase 3 with ENLFFQQ (SEQ ID NO: 7) TEVP protease cleavage site; Caspase 3 with both native TEVP and TVMVP cleavage sites separated by linker; Caspase 3 with native TEVP cleavage site fused to C-terminal TEVP-cleavable DHFR degron.
To evaluate how the mutated protease cleavage sites affect Caspase 3 activation, we polytransfected (i) input proteases (P3/P4-zipper reconstituted TEVP as a positive control, split TEVP without reconstitution domain as a negative control, or NeoR to evaluate caspase baseline activity; all with IRES-BFP to enable expression tracking) and (ii) output caspase (caspase+co-transfected GFP for expression tracking) in HEK293FT cells. Annexin staining as described above in Example 1 was used to quantify cell death.

HEK293FT cells [2] = experiment: Co-transfection time course, cell death every 24 h over 4 days; settings: P3/P4-zipper reconstituted TEVP
Method: Moreover, it was evaluated if some of these mutations affect the maximal caspase activation accessible and the time dependency between caspase activation and cell death by co-transfecting (i) input proteases (P3/P4-zipper reconstituted TEVP as a positive control, split TEVP without reconstitution domain as a negative control, or NeoR to evaluate caspase baseline activity; all with IRES-BFP to enable expression tracking) and (ii) output caspase (“ENLYFQS” (SEQ ID NO: 2)/“ENLYFQQ” (SEQ ID NO: 4)/“ENLFFQQ” (SEQ ID NO: 7)+co-transfected GFP for expression tracking) in HEK293FT cells and measuring cell death every 24 h over the course of 4 days.

HEK cells [3] = experiment: Q-VD-OPh on circuit-induced cell death, flow cytometry; settings: Q-VD-OPh 30 μM
Method: Then, because naturally occurring cell death can be modulated by small-molecule compounds, the effect of Q-VD-OPh, a caspase inhibitor, on synpoptosis circuits was investigated (FIG. 2C). […] It was also asked whether cells treated with synpoptosis circuits stain positive for TO-PRO-3, a dye that enters apoptotic cells through pannexin channels and pyroptotic cells through permeabilized membranes.
On the day before transfection, HEK cells were seeded at a density of 0.3-0.6 million cells per well on a 12-well plate, 0.1-0.3 million cells per well on a 24-well plate, or 15,000-50,000 cells per well on a 96-well plate. The cells were allowed to attach to the plate overnight, for at least 8 hours. On the day of transfection, we treated the cells with purified DNA plasmids encoding circuit components. In addition to plasmids encoding circuit components, we often included a plasmid encoding a fluorescent co-transfection marker, at roughly 50 ng DNA per well on a 24-well plate. Given the different number of molecular components in each synthetic circuit and their various relative ratios, the total amount of DNA ranged from 50 to 1 μg per well on a 24-well plate, and was scaled by 0.5 or 4 when other 12-well or 96-well plates were used, respectively. […]

HEK cells [4] = experiment: Transient DNA transfection of HEK cells, Annexin/Sytox staining, flow cytometry; settings: tev, tvmv and hcv sites
Method: HEK cells were transiently co-transfected with DNA encoding the circuits, often along with Cherry, a fluorescent protein marker, and cells were analyzed by flow cytometry 16 to 24 hours later. To quantify cell death, the cells were strained with Annexin, Sytox, or both. Annexin stains apoptotic cells by binding to phosphatidylserine exposed on the outer leaflet, and pyroptotic cells by binding to phosphatidylserine in the inner leaflet after membrane permeabilization. In contrast, Sytox, a membrane-impermeable dye, primarily stains pyroptotic cells. Therefore, apoptotic cells are typically Annexin-high and Sytox-low, while pyroptotic cells are Annexin-high and Sytox-high (FIG. 7B). For simplicity, in experiments involving only a single death mode, a single relevant dye was often used. To focus on cells influenced by the circuits, the fraction of Annexin- or Sytox-positive cells was calculated after gating on the fluorescent co-transfection marker (FIG. 7C).
On the day before transfection, HEK cells were seeded at a density of 0.3-0.6 million cells per well on a 12-well plate, 0.1-0.3 million cells per well on a 24-well plate, or 15,000-50,000 cells per well on a 96-well plate. The cells were allowed to attach to the plate overnight, for at least 8 hours. On the day of transfection, we treated the cells with purified DNA plasmids encoding circuit components. […]

“ENLYFQY: caspase 3 with modified TEVP cleavage site (left off: small tags and cut ends)” was tested, and the “input/output expression required for caspase activation (activation threshold)” value (“input/output expression required” for short) (HEK293FT cells [1]) was “in decreasing order”.

For “ENLYFQQ: caspase 3 with modified TEVP cleavage site (left off: small tags and cut ends)”, the “input/output expression required” value (HEK293FT cells [1]) was “in decreasing order” and the “maximal caspase activation / maximal fraction of dead cells” value (HEK293FT cells [2]) was “comparable maximal fraction of dead cells”.

With “ENLFFQQ: caspase 3 with modified TEVP cleavage site (left off: small tags and cut ends)” the “input/output expression required” value (HEK293FT cells [1]) was “requires the highest input/output expression for activation” and the “maximal caspase activation / maximal fraction of dead cells” value (HEK293FT cells [2]) was “reduces the maximum activation to a degree where the complete killing of the cell population is not possible anymore”.

With CC(C)[C@H](NC(=O)c1ccc2ccccc2n1)C(=O)N[C@@H](CC(=O)O)C(=O)COc1c(F)cccc1F [Q-VD-OPh, Quinoline-Val-Asp-Difluorophenoxymethylketone] the “apoptosis induced by the caspase-3 circuit” value (HEK cells [3]) was “suppressed circuit-induced apoptosis; also recorded: markedly attenuated apoptosis” and the “pyroptosis mediated by the GSDMA circuit” value (HEK cells [3]) was “did not affect pyroptosis”.

In the case of “hepatitis C virus protease [HCVP, reference compound]”, the “activation of cognate engineered GSDMs containing the cleavage sites” value (HEK cells [4]) is reported as “orthogonally activated their cognate engineered GSDMs”.

For “ENLFFQY: caspase 3 with modified TEVP cleavage site (left off: small tags and cut ends)”, the “input/output expression required” value (HEK293FT cells [1]) was “in decreasing order”.
